Source: ChEMBL document CHEMBL1201862, “PubChem BioAssay data set” (2004)
Calls of active or inactive are those of the source.

What was measured:
MDCK [1] = assay: MDCK cell cytotoxicity, dose response, cytotoxicity control (AID 540296); assay type: functional; settings: Canis lupus familiaris
Vero = assay: Vero E6 cell cytotoxicity, dose response, cytotoxicity control (AID 540298); assay type: functional; settings: Chlorocebus sabaeus
Nonstructural protein 1 = Nonstructural protein 1 (Influenza A virus, UniProt Q194T2); assay type: functional, Influenza A virus (A/California/07/2009(H1N1))
MDCK [2] = assay: antiviral activity against H1N1 influenza, dose response, cell-based, strain KY180 (AID 540254); assay type: functional; settings: Canis lupus familiaris
[3] = biological target: T1, High affinity choline transporter 1 (Homo sapiens, UniProt Q9GZV3); assay: CHT inhibitors, dose response, cell-based, 5-point CRC, membrane potential dye (AID 504840); assay type: functional
T1 sequence (Q9GZV3 whole entry): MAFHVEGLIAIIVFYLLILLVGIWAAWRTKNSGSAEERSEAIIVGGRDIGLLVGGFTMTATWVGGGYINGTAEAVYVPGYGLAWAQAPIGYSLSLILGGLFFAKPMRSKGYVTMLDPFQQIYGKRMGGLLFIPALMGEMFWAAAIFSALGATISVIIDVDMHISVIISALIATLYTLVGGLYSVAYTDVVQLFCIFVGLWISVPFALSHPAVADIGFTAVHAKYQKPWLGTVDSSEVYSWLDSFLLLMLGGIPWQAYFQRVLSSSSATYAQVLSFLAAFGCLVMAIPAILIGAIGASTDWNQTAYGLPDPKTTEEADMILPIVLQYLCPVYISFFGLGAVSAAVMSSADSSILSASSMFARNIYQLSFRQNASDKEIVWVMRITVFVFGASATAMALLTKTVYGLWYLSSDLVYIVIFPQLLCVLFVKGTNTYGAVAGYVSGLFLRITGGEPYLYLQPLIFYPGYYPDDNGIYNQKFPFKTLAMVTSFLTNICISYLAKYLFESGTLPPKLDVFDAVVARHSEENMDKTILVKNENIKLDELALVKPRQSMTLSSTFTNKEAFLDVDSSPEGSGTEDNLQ

MDCK [4] = assay: antiviral activity against H1N1 influenza, dose response, cell-based, strain KY136 (AID 540257); assay type: functional; settings: Canis lupus familiaris

Nonstructural protein 1, sequence (Q194T2 whole entry): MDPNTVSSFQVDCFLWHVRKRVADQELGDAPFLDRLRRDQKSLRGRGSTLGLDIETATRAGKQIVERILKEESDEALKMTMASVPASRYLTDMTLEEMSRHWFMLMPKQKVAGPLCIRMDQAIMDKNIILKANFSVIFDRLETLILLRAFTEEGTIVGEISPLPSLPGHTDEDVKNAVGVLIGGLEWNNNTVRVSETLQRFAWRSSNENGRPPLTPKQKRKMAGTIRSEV

O=C(Nc1cccc(CNCCc2c[nH]c3ccccc23)c1)c1ccccc1Cl
active: CC50 (MDCK [1]) 10.9 µM | CC50 (Vero) 22.4 µM | IC50 (Nonstructural protein 1) > 100 µM | IC50 (MDCK [2]) > 100 µM | IC50 [3] 17.4 µM | IC50 (MDCK [4]) 2.93 µM
